# How the values were obtained:
# Carbonic anhydrase 9 = Carbonic anhydrase 9 (Homo sapiens, UniProt Q16790); assay: Inhibition of human CA9 preincubated for 15 mins by phenol red dye based stopped flow CO2 hydration assay
# SF-539 = assay: Antiproliferative activity against human SF-539 cells assessed as cell growth inhibition at 10 uM incubated for 24 hrs by sulforhodamine B assay; type: functional; settings: read-out: GI
# CCRF-CEM = assay: Antiproliferative activity against human CCRF-CEM cells assessed as cell growth inhibition at 10 uM incubated for 24 hrs by sulforhodamine B assay; type: functional; settings: read-out: GI
# K562 = assay: Antiproliferative activity against human K562 cells assessed as cell growth inhibition at 10 uM incubated for 24 hrs by sulforhodamine B assay; type: functional; settings: read-out: GI
# MOLT-4 = assay: Antiproliferative activity against human MOLT-4 cells assessed as cell growth inhibition at 10 uM incubated for 24 hrs by sulforhodamine B assay; type: functional; settings: read-out: GI
# RPMI-8226 = assay: Antiproliferative activity against human RPMI-8226 cells assessed as cell growth inhibition at 10 uM incubated for 24 hrs by sulforhodamine B assay; type: functional; settings: read-out: GI
# SR = assay: Antiproliferative activity against human SR cells assessed as cell growth inhibition at 10 uM incubated for 24 hrs by sulforhodamine B assay; type: functional; settings: read-out: GI
# A549 = assay: Antiproliferative activity against human A549 cells assessed as cell growth inhibition at 10 uM incubated for 24 hrs by sulforhodamine B assay; type: functional; settings: read-out: GI
# HOP-62 = assay: Antiproliferative activity against human HOP-62 cells assessed as cell growth inhibition at 10 uM incubated for 24 hrs by sulforhodamine B assay; type: functional; settings: read-out: GI
# HOP-92 = assay: Antiproliferative activity against human HOP-92 cells assessed as cell growth inhibition at 10 uM incubated for 24 hrs by sulforhodamine B assay; type: functional; settings: read-out: GI
# NCI-H226 = assay: Antiproliferative activity against human NCI-H226 cells assessed as cell growth inhibition at 10 uM incubated for 24 hrs by sulforhodamine B assay; type: functional; settings: read-out: GI
# NCI-H23 = assay: Antiproliferative activity against human NCI-H23 cells assessed as cell growth inhibition at 10 uM incubated for 24 hrs by sulforhodamine B assay; type: functional; settings: read-out: GI
# NCI-H460 = assay: Antiproliferative activity against human NCI-H460 cells assessed as cell growth inhibition at 10 uM incubated for 24 hrs by sulforhodamine B assay; type: functional; settings: read-out: GI
# NCI-H522 = assay: Antiproliferative activity against human NCI-H522 cells assessed as cell growth inhibition at 10 uM incubated for 24 hrs by sulforhodamine B assay; type: functional; settings: read-out: GI
# HCT-116 = assay: Antiproliferative activity against human HCT-116 cells assessed as cell growth inhibition at 10 uM incubated for 24 hrs by sulforhodamine B assay; type: functional; settings: read-out: GI
# HCT-15 = assay: Antiproliferative activity against human HCT-15 cells assessed as cell growth inhibition at 10 uM incubated for 24 hrs by sulforhodamine B assay; type: functional; settings: read-out: GI
# HT-29 = assay: Antiproliferative activity against human HT-29 cells assessed as cell growth inhibition at 10 uM incubated for 24 hrs by sulforhodamine B assay; type: functional; settings: read-out: GI
# KM12 = assay: Antiproliferative activity against human KM12 cells assessed as cell growth inhibition at 10 uM incubated for 24 hrs by sulforhodamine B assay; type: functional; settings: read-out: GI
# SW-620 = assay: Antiproliferative activity against human SW-620 cells assessed as cell growth inhibition at 10 uM incubated for 24 hrs by sulforhodamine B assay; type: functional; settings: read-out: GI
# SF-268 = assay: Antiproliferative activity against human SF-268 cells assessed as cell growth inhibition at 10 uM incubated for 24 hrs by sulforhodamine B assay; type: functional; settings: read-out: GI
# SF-295 = assay: Antiproliferative activity against human SF-295 cells assessed as cell growth inhibition at 10 uM incubated for 24 hrs by sulforhodamine B assay; type: functional; settings: read-out: GI
# SNB-19 = assay: Antiproliferative activity against human SNB-19 cells assessed as cell growth inhibition at 10 uM incubated for 24 hrs by sulforhodamine B assay; type: functional; settings: read-out: GI
# SNB-75 = assay: Antiproliferative activity against human SNB-75 cells assessed as cell growth inhibition at 10 uM incubated for 24 hrs by sulforhodamine B assay; type: functional; settings: read-out: GI
# U-251 = assay: Antiproliferative activity against human U-251 cells assessed as cell growth inhibition at 10 uM incubated for 24 hrs by sulforhodamine B assay; type: functional; settings: read-out: GI
# LOX IMVI = assay: Antiproliferative activity against human LOX IMVI cells assessed as cell growth inhibition at 10 uM incubated for 24 hrs by sulforhodamine B assay; type: functional; settings: read-out: GI
# Malme-3M = assay: Antiproliferative activity against human Malme-3M cells assessed as cell growth inhibition at 10 uM incubated for 24 hrs by sulforhodamine B assay; type: functional; settings: read-out: GI
# M14 = assay: Antiproliferative activity against human M14 cells assessed as cell growth inhibition at 10 uM incubated for 24 hrs by sulforhodamine B assay; type: functional; settings: read-out: GI
# MDA-MB-435 = assay: Antiproliferative activity against human MDA-MB-435 cells assessed as cell growth inhibition at 10 uM incubated for 24 hrs by sulforhodamine B assay; type: functional; settings: read-out: GI
# SK-MEL-28 = assay: Antiproliferative activity against human SK-MEL-28 cells assessed as cell growth inhibition at 10 uM incubated for 24 hrs by sulforhodamine B assay; type: functional; settings: read-out: GI
# SK-MEL-5 = assay: Antiproliferative activity against human SK-MEL-5 cells assessed as cell growth inhibition at 10 uM incubated for 24 hrs by sulforhodamine B assay; type: functional; settings: read-out: GI
# UACC-62 = assay: Antiproliferative activity against human UACC-62 cells assessed as cell growth inhibition at 10 uM incubated for 24 hrs by sulforhodamine B assay; type: functional; settings: read-out: GI
# IGROV-1 = assay: Antiproliferative activity against human IGROV-1 cells assessed as cell growth inhibition at 10 uM incubated for 24 hrs by sulforhodamine B assay; type: functional; settings: read-out: GI
# OVCAR-3 = assay: Antiproliferative activity against human OVCAR-3 cells assessed as cell growth inhibition at 10 uM incubated for 24 hrs by sulforhodamine B assay; type: functional; settings: read-out: GI
# OVCAR-4 = assay: Antiproliferative activity against human OVCAR-4 cells assessed as cell growth inhibition at 10 uM incubated for 24 hrs by sulforhodamine B assay; type: functional; settings: read-out: GI
# OVCAR-8 = assay: Antiproliferative activity against human OVCAR-8 cells assessed as cell growth inhibition at 10 uM incubated for 24 hrs by sulforhodamine B assay; type: functional; settings: read-out: GI
# NCI/ADR-RES = assay: Antiproliferative activity against human NCI-ADR-RES cells assessed as cell growth inhibition at 10 uM incubated for 24 hrs by sulforhodamine B assay; type: functional; settings: read-out: GI
# 786-0 = assay: Antiproliferative activity against human 786-0 cells assessed as cell growth inhibition at 10 uM incubated for 24 hrs by sulforhodamine B assay; type: functional; settings: read-out: GI
# ACHN = assay: Antiproliferative activity against human ACHN cells assessed as cell growth inhibition at 10 uM incubated for 24 hrs by sulforhodamine B assay; type: functional; settings: read-out: GI
# CAKI-1 = assay: Antiproliferative activity against human CAKI-1 cells assessed as cell growth inhibition at 10 uM incubated for 24 hrs by sulforhodamine B assay; type: functional; settings: read-out: GI
# RXF 393 = assay: Antiproliferative activity against human RXF 393 cells assessed as cell growth inhibition at 10 uM incubated for 24 hrs by sulforhodamine B assay; type: functional; settings: read-out: GI
# SN12C = assay: Antiproliferative activity against human SN12C cells assessed as cell growth inhibition at 10 uM incubated for 24 hrs by sulforhodamine B assay; type: functional; settings: read-out: GI
# TK-10 = assay: Antiproliferative activity against human TK-10 cells assessed as cell growth inhibition at 10 uM incubated for 24 hrs by sulforhodamine B assay; type: functional; settings: read-out: GI
# UO-31 = assay: Antiproliferative activity against human UO-31 cells assessed as cell growth inhibition at 10 uM incubated for 24 hrs by sulforhodamine B assay; type: functional; settings: read-out: GI
# PC-3 = assay: Antiproliferative activity against human PC-3 cells assessed as cell growth inhibition at 10 uM incubated for 24 hrs by sulforhodamine B assay; type: functional; settings: read-out: GI
# DU-145 = assay: Antiproliferative activity against human DU-145 cells assessed as cell growth inhibition at 10 uM incubated for 24 hrs by sulforhodamine B assay; type: functional; settings: read-out: GI
# MCF7 [1] = assay: Antiproliferative activity against human MCF7 cells assessed as cell growth inhibition at 10 uM incubated for 24 hrs by sulforhodamine B assay; type: functional; settings: read-out: GI
# BT-549 = assay: Antiproliferative activity against human BT-549 cells assessed as cell growth inhibition at 10 uM incubated for 24 hrs by sulforhodamine B assay; type: functional; settings: read-out: GI
# T47D [2] = assay: Antiproliferative activity against human T47D cells assessed as cell growth inhibition at 10 uM incubated for 24 hrs by sulforhodamine B assay; type: functional; settings: read-out: GI
# MCF7 [3] = assay: Antiproliferative activity against human MCF7 cells assessed as reduction in cell viability incubated for 24 hrs by sulforhodamine B assay; type: functional, cell-based; settings: MCF7, 24 h
# T47D [4] = assay: Antiproliferative activity against human T47D cells assessed as reduction in cell viability incubated for 24 hrs by sulforhodamine B assay; type: functional, cell-based
# MDA-MB-231 [5] = assay: Antiproliferative activity against human MDA-MB-231 cells assessed as reduction in cell viability incubated for 24 hrs by sulforhodamine B assay; type: functional, cell-based; settings: MDA-MB-231, 24 h
# MDA-MB-231 [6] = assay: Antiproliferative activity against human MDA-MB-231 cells assessed as cell growth inhibition at 10 uM incubated for 24 hrs by sulforhodamine B assay; type: functional; settings: read-out: GI
smiles,measurement,setting,value
Cc1ccc(-c2nc(SCC(=O)c3ccccc3)nc(Nc3ccc(S(N)(=O)=O)cc3)c2C#N)cc1,Ki,Carbonic anhydrase 9,0.0074 µM
same,inhibition of growth at 10 µM,SF-539,81.7%
same,inhibition of growth at 10 µM,CCRF-CEM,18%
same,inhibition of growth at 10 µM,K562,29.9%
same,inhibition of growth at 10 µM,MOLT-4,13.4%
same,inhibition of growth at 10 µM,RPMI-8226,34.6%
same,inhibition of growth at 10 µM,SR,43.1%
same,inhibition of growth at 10 µM,A549,12.6%
same,inhibition of growth at 10 µM,HOP-62,73.8%
same,inhibition of growth at 10 µM,HOP-92,62.4%
same,inhibition of growth at 10 µM,NCI-H226,28.6%
same,inhibition of growth at 10 µM,NCI-H23,65.5%
same,inhibition of growth at 10 µM,NCI-H460,34.8%
same,inhibition of growth at 10 µM,NCI-H522,12.9%
same,inhibition of growth at 10 µM,HCT-116,64.1%
same,inhibition of growth at 10 µM,HCT-15,27.9%
same,inhibition of growth at 10 µM,HT-29,7.65%
same,inhibition of growth at 10 µM,KM12,27.2%
same,inhibition of growth at 10 µM,SW-620,16.2%
same,inhibition of growth at 10 µM,SF-268,23.3%
same,inhibition of growth at 10 µM,SF-295,63.3%
same,inhibition of growth at 10 µM,SNB-19,22.8%
same,inhibition of growth at 10 µM,SNB-75,20%
same,inhibition of growth at 10 µM,U-251,52.6%
same,inhibition of growth at 10 µM,LOX IMVI,84.5%
same,inhibition of growth at 10 µM,Malme-3M,66.4%
same,inhibition of growth at 10 µM,M14,63.3%
same,inhibition of growth at 10 µM,MDA-MB-435,53%
same,inhibition of growth at 10 µM,SK-MEL-28,18.9%
same,inhibition of growth at 10 µM,SK-MEL-5,24.5%
same,inhibition of growth at 10 µM,UACC-62,19.7%
same,inhibition of growth at 10 µM,IGROV-1,13.7%
same,inhibition of growth at 10 µM,OVCAR-3,96%
same,inhibition of growth at 10 µM,OVCAR-4,75.7%
same,inhibition of growth at 10 µM,OVCAR-8,65.4%
same,inhibition of growth at 10 µM,NCI/ADR-RES,18.3%
same,inhibition of growth at 10 µM,786-0,53.7%
same,inhibition of growth at 10 µM,ACHN,10.3%
same,inhibition of growth at 10 µM,CAKI-1,48.5%
same,inhibition of growth at 10 µM,RXF 393,48.2%
same,inhibition of growth at 10 µM,SN12C,37%
same,inhibition of growth at 10 µM,TK-10,32.5%
same,inhibition of growth at 10 µM,UO-31,25.1%
same,inhibition of growth at 10 µM,PC-3,7.4%
same,inhibition of growth at 10 µM,DU-145,39.3%
same,inhibition of growth at 10 µM,MCF7 [1],34.9%
same,inhibition of growth at 10 µM,BT-549,26.2%
same,inhibition of growth at 10 µM,T47D [2],16.1%
same,IC50,MCF7 [3],> 100 µM
same,IC50,T47D [4],> 100 µM
same,IC50,MDA-MB-231 [5],> 100 µM
same,inhibition of growth at 10 µM,MDA-MB-231 [6],67%
